The source of these data is patent US10947218B2, “Aminopyridine derivatives and their use as selective ALK-2 inhibitors” (priority 2016, dated 2021).

Series [1] in a line: Dynamic Vapor Sorption (physical stability versus relative humidity). The series is classed as physicochemical. As to the method: The peaks found are: Wave number (in cm^−1): 3241(m), 2951(w), 2867(w), 1669(m), 1538(m), 1456(w), 1355(m), 1249(m), 1087(w), 979(w), 885(w), 797(w). […] Then 3 mL of heptane were added into the solution. White solid precipitated out. The solid was separated by suction filtration and dried at 40° C. under vacuum overnight. 380 mg of a fumarate salt amorphous form of 2-amino-N-(4-hydroxybicyclo[2.2.2]octan-1-yl)-5-(4-((1R,5S)-3-(tetrahydro-2H-pyran-4-yl)-3-azabicyclo[3.1.0]hexan-1-yl)phenyl)nicotinamide was obtained as a white solid. […] Resulting mixture was stirred at 50° C. for 0.5 hour and a clear solution was obtained. To the solution was slowly added a solution of 695.2 mg in 10 mL of acetone:water (95:5, v/v). Resulting suspension was gradually cooled to 25° C. and was kept stirring for 24 hours. Add 1.5 mL water to the suspension. The mixture was kept stirring at 50° C. for 12 hours and slowly cooled to 25° C. Solid was separated by suction filtration, washed with 10 mL acetone:water (90:10, v/v) once, and exposed to an ambient environment (about 25° C., 50% RH) overnight. […]

Series [2] in a line: Solubility in aqueous media (25° C., 24 h equilibration). The following applies: pH 9.0 borate buffer/8.6, target concentration 2 mg/mL. The series is classed as physicochemical.

Structures can show the parent of a compound that is named as a salt.

Consider `Nc1ncc(-c2ccc([C@@]34C[C@@H]3CN(C3CCOCC3)C4)cc2)cc1C(=O)NC12CCC(O)(CC1)CC2` [Fumarate salt Modification HA, 2-amino-N-(4-hydroxybicyclo[2.2.2]octan-1-yl)-5-(4-((1R,5S)-3-(tetrahydro-2H-pyran-4-yl)-3-azabicyclo[3.1.0]hexan-1-yl)phenyl)nicotinamide], for which the “physical stability over relative humidity (DVS)” value in series [1] (25° C., FIG. 15) is on record as “physically stable at least from 0% to 90% RH”; in series [1] (40° C., FIG. 16), “physically stable at least from 10% to 90% RH”.
As to `Nc1ncc(-c2ccc([C@@]34C[C@@H]3CN(C3CCOCC3)C4)cc2)cc1C(=O)NC12CCC(O)(CC1)CC2` [Free form Modification HA, 2-amino-N-(4-hydroxybicyclo[2.2.2]octan-1-yl)-5-(4-((1R,5S)-3-(tetrahydro-2H-pyran-4-yl)-3-azabicyclo[3.1.0]hexan-1-yl)phenyl)nicotinamide], the solubility entry in series [2] was “<LOQ”.
